Assays:
Format in all cases: physicochemical
[1] = Decomposition temperature by thermogravimetric-differential thermal analysis (TG-DTA); conditions: temperature at which weight loss initiated
Protocol: Into 25 parts of acetic acid, 14.9 parts of 4,5-benzo-1-(2-methoxyethyl)-3,3-dimethyl-2-methyleneindoline and 4.5 parts of 2-chloro-1-formyl-3-hydroxymethylenecyclohexene were charged and the reaction mixture was heated up to 60° C. 5.1 parts of acetic anhydride was added dropwise thereto at 50° C. to 60° C. over 1 hour, and then stirred at 50° C. to 60° C. for further 2 hours to complete the condensation reaction. The reaction liquid was cooled to room temperature, and then filtered under aspiration to remove insoluble impurity. Subsequently, a solution of 8.8 parts of potassium(bis-trifluoromethanesulfonyl)imide in 40 parts of water was added dropwise to the reaction liquid. The precipitated crystal was filtered under aspiration, recrystallized from 70 parts of N,N-dimethylformamide, washed with 5 parts of methanol, then with water, and dried, to obtain 19.1 parts of the aforementioned Compound 31. Spectroscopic characteristics and decomposition temperature of the resultant Compound 31 were as follows. In this connection, decomposition temperature was shown by a value of the temperature at which weight loss initiated in a thermogravimetric-differential thermal analysis (TG-DTA).

[2] = Solubility to various solvents at room temperature; conditions: % by mass
Text: Further, solubility to various types of solvents at room temperature was as follows.
Further, solubility to various kinds of solvents at room temperature was as follows.

[3] = Heat resistance stability test of filter (oven 80° C., 7 days); conditions: for Residual Ratio: (Absorbance after the test/Absorbance before the test)×100, 80° C., 7 days; for Absorbance (OD value) Initial: acryl resin filter on polyester film, at maximum absorption wavelength, before 80° C. test; for Absorbance (OD value) After 7 days: acryl resin filter, oven at 80° C. for 7 days
Protocol: (§1) In this connection, absorbance (OD value) was measured using a spectrophotometer UV-3150 made by Shimadzu Corp. When measurement was carried out using a solvent, the same solvent was measured as a blank, and when measurement was carried out using a filter, a filter which had the same composition except that only the cyanine compound was not contained was produced and measured as a blank.
In 18.8 parts of MEK, 0.4 parts of Compound 31 obtained in the above Example 5 was dissolved. To this solution, 80 parts of a resin solution prepared by dissolving 25 parts of an acryl-based resin (DIANAL (RTM) BR-80, made by Mitsubishi Rayon Co., Ltd.) in 75 parts of MEK was mixed to obtain a solution for coating. This solution was coated on a polyester film so that thickness becomes 2 to 4 μm, dried at 80° C. to obtain an optical filter of the present invention. This filter was used as a filter for absorbing near infrared rays.
The resultant filter for absorbing near infrared rays was left to stand in an oven at 80° C. for 7 days. Then absorbance (OD value) of the filter was measured with a spectrophotometer before and after the test, and residual ratio of the coloring matter was determined from the change of the absorbance (OD value) at the maximum absorption wavelength. Residual ratio=(Absorbance after the test/Absorbance before the test)×100

[4] = Wet heat resistance stability test of filter (85° C., 85% RH, 3 days); conditions: for Residual Ratio: absorbance after/before ×100, 85° C. and 85% RH, 3 days; for Absorbance (OD value) After 3 days / Absorbance (OD value) Initial: acryl resin filter; for Absorbance (OD value) After 3 days: 85° C. and 85% RH for 3 days; for Absorbance (OD value) Initial: before 85° C./85% RH test
Protocol: as §1
The filter obtained in Example 12 (the filter using Compound 31) was left to stand in a high temperature constant humidity chamber at 85° C. and 85% RH for 3 days. Absorbance (OD value) of the filter was measured with a spectrophotometer before and after the test, and residual ratio of the coloring matter was determined from the change of the absorbance (OD value) at the maximum absorption wavelength.
The filters obtained in Comparative Examples 1 to 6 were left to stand in a high temperature constant humidity chamber at 85° C. and 85% RH for 3 days. Then absorbances (OD values) of the filters were measured with a spectrophotometer before and after the test, and residual ratios of the coloring matters were determined from the changes of the absorbances (OD values) at each maximum absorption wavelength. The test using the filter obtained in Comparative Example 1 is termed as Comparative Example 7, the test using the filter obtained in Comparative Example 2 is termed as Comparative Example 8, the test using the filter obtained in Comparative Example 3 is termed as Comparative Example 9, the test using the filter obtained in Comparative Example 4 is termed as Comparative Example 10, the test using the filter obtained in Comparative Example 5 is termed as Comparative Example 11, and the test using the filter obtained in Comparative Example 6 is termed as Comparative Example 12.

## COCCN1/C(=C/C=C2\CCCC(/C=C/C3=[N+](CCOC)c4ccc5ccccc5c4C3(C)C)=C2Cl)C(C)(C)c2c1ccc1ccccc21 [Compound 31]
[1]
  Decomposition temperature: 242.9 °C
[2]
  Solubility, Cyclopentanone: 14.5%
  Solubility, Dichloromethane: 19.2%
  Solubility, Methyl ethyl ketone (MEK): 2.9%
  Solubility, N,N-dimethylformamide: 24.6%
[3]
  Residual Ratio: 80.9%
  Absorbance (OD value) Initial: 0.65
  Absorbance (OD value) After 7 days: 0.52
[4]
  Residual Ratio: 90.9%
  Absorbance (OD value) After 3 days: 0.59
  Absorbance (OD value) Initial: 0.65

## COCCN1/C(=C/C=C2\CCC(/C=C/C3=[N+](CCOC)c4ccc5ccccc5c4C3(C)C)=C2Cl)C(C)(C)c2c1ccc1ccccc21 [Compound 46]
[1]
  Decomposition temperature: 213.0 °C
[2]
  Solubility, Cyclohexanone: 0.8%
  Solubility, Cyclopentanone: 3.1%
  Solubility, Methyl ethyl ketone (MEK): 0.2%
  Solubility, N,N-dimethylformamide: 3.4%

## CN1/C(=C/C=C/C=C/C=C/C2=[N+](C)c3ccc4ccccc4c3C2(C)C)C(C)(C)c2c1ccc1ccccc21 [Compound C]
[3]
  Residual Ratio: 80.9%
  Absorbance (OD value) Initial: 0.75
  Absorbance (OD value) After 7 days: 0.61
[4]
  Residual Ratio: 89.7%
  Absorbance (OD value) After 3 days: 0.67
  Absorbance (OD value) Initial: 0.75

## CCCCOCCN1/C(=C/C=C2\CCC(/C=C/C3=[N+](CCOCCCC)c4ccc5ccccc5c4C3(C)C)=C2Cl)C(C)(C)c2c1ccc1ccccc21 [Compound 47]
[1]
  Decomposition temperature: 186.0 °C
[2]
  Solubility, Cyclohexanone: 2.6%
  Solubility, Cyclopentanone: 0.9%
  Solubility, Methyl ethyl ketone (MEK): 1.6%
  Solubility, N,N-dimethylformamide: 4.5%

## CN1/C(=C/C=C2\CCCC(/C=C/C3=[N+](C)c4ccc5ccccc5c4C3(C)C)=C2Cl)C(C)(C)c2c1ccc1ccccc21 [Compound B]
[3]
  Residual Ratio: 85.6%
  Absorbance (OD value) Initial: 0.67
  Absorbance (OD value) After 7 days: 0.57
[4]
  Residual Ratio: 93.6%
  Absorbance (OD value) After 3 days: 0.63
  Absorbance (OD value) Initial: 0.67

## COCCN1/C(=C/C=C2\CCCC(/C=C/C3=[N+](CCOC)c4ccccc4C3(C)C)=C2Cl)C(C)(C)c2ccccc21 [Compound A]
[1]
  Decomposition temperature: 224.6 °C
[3]
  Residual Ratio: 87.2%
  Absorbance (OD value) Initial: 0.83
  Absorbance (OD value) After 7 days: 0.72
[4]
  Residual Ratio: 99.9%
  Absorbance (OD value) After 3 days: 0.82
  Absorbance (OD value) Initial: 0.83

## COCCN1/C(=C/C=C/C=C/C=C/C2=[N+](CCOC)c3ccccc3C2(C)C)C(C)(C)c2ccccc21 [Compound 30]
[3]
  Residual Ratio: 89.7%
  Absorbance (OD value) Initial: 0.83
  Absorbance (OD value) After 7 days: 0.74
[4]
  Residual Ratio: 97.3%
  Absorbance (OD value) After 3 days: 0.80
  Absorbance (OD value) Initial: 0.83

Source: patent publication US20080048155A1, “Filter and Cyanine Compound” (priority 2004, published 2008)
